Data reported in patent US20080182822A1, “Liquid Pharmaceutical Compositions Comprising a Bisphosphonate Compound” (Besins Healthcare SA, priority 2006, published 2008).
Values joined by “and” are separate entries in the source; they are usually repeats but may differ in a detail not shown here. Equal entries are not always repeated. Where two headings read alike, the source gives them in different places.

Settings: rat; for Feces Excretion, Amount Excreted (% of Dose), 8 hours: collection 0-8 hours; for Feces Excretion, Amount Excreted (% of Dose), 120 hours / Urinary Excretion, Amount Excreted (% of Dose), 120 hours: collection 96-120 hours; for Feces Excretion, Amount Excreted (% of Dose), 144 hours / Urinary Excretion, Amount Excreted (% of Dose), 144 hours: collection 120-144 hours; for Feces Excretion, Amount Excreted (% of Dose), 168 hours / Urinary Excretion, Amount Excreted (% of Dose), 168 hours: collection 144-168 hours
[1] = intravenous 0.2 mg/kg (Group 1), Mean
[2] = intravenous 0.2 mg/kg (Group 1), individual animals, 0.2 mg/kg
[3] = intravenous 0.2 mg/kg (Group 1), collection 24-48 hours, individual animals, 0.2 mg/kg
[4] = intravenous 0.2 mg/kg (Group 1), collection 48-72 hours, Mean
[5] = intravenous 0.2 mg/kg (Group 1), collection 48-72 hours, individual animals, 0.2 mg/kg
[6] = intravenous 0.2 mg/kg (Group 1), collection 72-96 hours, Mean
[7] = intravenous 0.2 mg/kg (Group 1), collection 72-96 hours, individual animals, 0.2 mg/kg
[8] = intravenous 0.2 mg/kg (Group 1), necropsy Day 4, Mean
[9] = intravenous 0.2 mg/kg (Group 1), necropsy Day 4, individual animals, 0.2 mg/kg
[10] = intravenous 0.2 mg/kg (Group 1), necropsy Day 8, Mean
[11] = intravenous 0.2 mg/kg (Group 1), necropsy Day 8, individual animals, 0.2 mg/kg

In the case of `NCCCC(O)(P(=O)(O)O)P(=O)(O)O` [14C-alendronate], the “Recovery from Treated Skin, % of Dose” value (dermal (Group 2), necropsy Day 8, individual animals) was 0.25% and 0.22% (2×) and 0.33% and 0.39%, the “Urinary Excretion, Total Excretion (% of Dose), 0-72 hours” value (in vivo) was 1.16% of Dose and the “Feces Excretion, Amount Excreted (% of Dose), 72 hours” value (in vivo, iv, 0.2 mg/kg) was 1.17% of Dose. For the same molecule, the “Feces Excretion, Amount Excreted (% of Dose), 96 hours” value (in vivo, iv, 0.2 mg/kg) was 1.17% of Dose, the “Urinary Excretion, Amount Excreted (% of Dose), 24 hours” value (in vivo, iv, 0.2 mg/kg) was 1.19% of Dose and 1.28% of Dose and 1.37% of Dose and 1.27% of Dose and 1.06% of Dose and the “Urinary Excretion, Total Excretion (% of Dose), 0-72 hours” value (in vivo, iv, 0.2 mg/kg) was 11.3% of Dose. For the same molecule, the “Feces Excretion, Total Excretion (% of Dose), 0-72 hours” value [1] was 4.1% of Dose, the “Urinary Excretion, Total Excretion (% of Dose), 0-72 hours” value [1] was 7.3% of Dose and the “Feces Excretion, Amount Excreted (% of Dose), 8 hours” value [1] was 0.12% of Dose. The “Feces Excretion, Amount Excreted (% of Dose), 8 hours” value [2] was 0.01% of Dose and 0.02% of Dose and 0.00% of Dose (3×) and 0.67% of Dose, the “Urinary Excretion, Amount Excreted (% of Dose), 24 hours” value (intravenous 0.2 mg/kg (Group 1), collection 8-24 hours, Mean) was 1.2% of Dose and the “Urinary Excretion, Amount Excreted (% of Dose), 24 hours” value (intravenous 0.2 mg/kg (Group 1), collection 8-24 hours, individual animals) was 0.94% of Dose. For the same molecule, the “Urinary Excretion, Amount Excreted (% of Dose), 48 hours” value (intravenous 0.2 mg/kg (Group 1), collection 24-48 hours, Mean) was 0.8% of Dose, the “Feces Excretion, Amount Excreted (% of Dose), 48 hours” value [3] was 0.47% of Dose and 0.92% of Dose and the “Urinary Excretion, Amount Excreted (% of Dose), 48 hours” value [3] was 0.78% of Dose and 0.94% of Dose and 0.75% of Dose and 0.95% of Dose and 0.34% of Dose and 0.85% of Dose. For the same molecule, the “Feces Excretion, Amount Excreted (% of Dose), 72 hours” value [4] was 0.57% of Dose, the “Urinary Excretion, Amount Excreted (% of Dose), 72 hours” value [4] was 0.4% of Dose and the “Feces Excretion, Amount Excreted (% of Dose), 72 hours” value [5] was 0.15% of Dose and 0.24% of Dose and 0.44% of Dose and 0.87% of Dose. For the same molecule, the “Urinary Excretion, Amount Excreted (% of Dose), 72 hours” value [5] was 0.56% of Dose and 0.34% of Dose and 0.51% of Dose and 0.61% of Dose and 0.20% of Dose and 0.26% of Dose, the “Feces Excretion, Amount Excreted (% of Dose), 96 hours” value [6] was 0.55% of Dose and the “Urinary Excretion, Amount Excreted (% of Dose), 96 hours” value [6] was 0.5% of Dose. For the same molecule, the “Feces Excretion, Amount Excreted (% of Dose), 96 hours” value [7] was 0.32% of Dose and 0.14% of Dose, the “Urinary Excretion, Amount Excreted (% of Dose), 96 hours” value [7] was 0.74% of Dose and 0.15% of Dose and 0.57% of Dose and the “Feces Excretion, Amount Excreted (% of Dose), 120 hours” value [1] was 0.41% of Dose. The “Urinary Excretion, Amount Excreted (% of Dose), 120 hours” value [1] was 0.3% of Dose, the “Feces Excretion, Amount Excreted (% of Dose), 120 hours” value [2] was 0.56% of Dose and 0.12% of Dose and 0.54% of Dose and the “Urinary Excretion, Amount Excreted (% of Dose), 120 hours” value [2] was 0.43% of Dose and 0.11% of Dose and 0.27% of Dose. The “Feces Excretion, Amount Excreted (% of Dose), 144 hours” value [1] was 0.34% of Dose, the “Urinary Excretion, Amount Excreted (% of Dose), 144 hours” value [1] was 0.3% of Dose and the “Feces Excretion, Amount Excreted (% of Dose), 144 hours” value [2] was 0.36% of Dose and 0.08% of Dose and 0.59% of Dose. The “Urinary Excretion, Amount Excreted (% of Dose), 144 hours” value [2] was 0.59% of Dose and 0.06% of Dose and 0.31% of Dose, the “Feces Excretion, Amount Excreted (% of Dose), 168 hours” value [1] was 0.04% of Dose and the “Urinary Excretion, Amount Excreted (% of Dose), 168 hours” value [1] was 0.2% of Dose. The “Feces Excretion, Amount Excreted (% of Dose), 168 hours” value [2] was 0.06% of Dose and 0.02% of Dose and 0.05% of Dose, the “Urinary Excretion, Amount Excreted (% of Dose), 168 hours” value [2] was 0.33% of Dose and 0.18% of Dose and 0.16% of Dose and the “Feces Excretion, Total Excretion (% of Dose), 0-72 hours” value [2] was 3.1% of Dose and 8.6% of Dose and 2.4% of Dose and 3.2% of Dose and 2.3% of Dose and 5.0% of Dose. The “Feces Excretion, Total Excretion (% of Dose), 0-168 hours” value [2] was 5.6% of Dose and 3.1% of Dose and 8.2% of Dose, the “Urinary Excretion, Total Excretion (% of Dose), 0-72 hours” value [2] was 8.0% of Dose and 7.6% of Dose and 7.8% of Dose and 3.9% of Dose and 5.2% of Dose and the “Concentration in bone, Femur” value [8] was 0.500 μg 14C-alendronate/g bone. The “Concentration in bone, Tibia” value [8] was 0.492 μg 14C-alendronate/g bone, the “Concentration in bone, Femur” value [9] was 0.525 μg 14C-alendronate/g bone and 0.408 μg 14C-alendronate/g bone and 0.568 μg 14C-alendronate/g bone and the “Concentration in bone, Tibia” value [9] was 0.551 μg 14C-alendronate/g bone and 0.547 μg 14C-alendronate/g bone and 0.379 μg 14C-alendronate/g bone. The “Concentration in bone, Femur” value [10] was 0.679 μg 14C-alendronate/g bone, the “Concentration in bone, Tibia” value [10] was 0.586 μg 14C-alendronate/g bone and the “Concentration in bone, Femur” value [11] was 0.707 μg 14C-alendronate/g bone and 0.692 μg 14C-alendronate/g bone and 0.639 μg 14C-alendronate/g bone. The “Concentration in bone, Tibia” value [11] was 0.704 μg 14C-alendronate/g bone and 0.680 μg 14C-alendronate/g bone and 0.374 μg 14C-alendronate/g bone.
